From US9980943B2, “Methods of treating muscular dystrophy” (BOARD OF REGENTS OF THE NEVADA SYSTEM OF HIGHER EDUCATION, …, priority 2013, dated 2018) come the findings set out here.

What all share (assay type): cell-based, mouse
In assay [1] the test system is β-galactosidase in CMV-LacZ C2C12 myoblasts. The assay can be described thus: CMV-LacZ secondary screen in C2C12 myoblasts (β-Gal stabilizing assay). The conditions noted are these: for CMV-LACZ in Myoblasts, value relative to DMSO: SU9516 analogs, C2C12 CMV-LacZ, N=2; for CMV-LACZ in Myoblasts (β-galactosidase activity relative to DMSO): CMV-LacZ C2C12 myoblasts. In short, it runs like this:
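C2C12 myoblasts stably carrying a linearized CMV-driven LacZ construct, clone chosen by β-gal level in the myoblast FDG assay. Compounds tested in 96-well dose-response at 0.5, 1, 5, 10, 20 and 40 μM, N=2 replicates per point, to detect β-gal stabilization.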

For assay [2], the system named is β-galactosidase in CMV-LacZ C2C12 myotubes. The assay can be described thus: CMV-LacZ secondary screen in C2C12 myotubes (β-Gal stabilizing assay). The conditions noted are these: for CMV-LACZ in Myotubes, value relative to DMSO: SU9516 analogs, C2C12 CMV-LacZ, N=2; for CMV-LACZ in Myotubes, signal relative to DMSO: C2C12 CMV-LacZ myotubes, fold relative to DMSO. A digest of the protocol:
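First, C2C12 myoblasts were transfected with a linearized CMV-LACZ vector and clonal lines selected by FDG β-gal assay. Then cells were exposed to compounds at 0.5, 1, 5, 10, 20 and 40 μM in 96-well format, two replicates each, and β-gal measured.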

Assay [3] concerns α7 integrin (LacZ reporter in α7βgal+/− myoblasts). The assay can be described thus: Myoblast α7+/LacZ integrin FDG assay (Burkin assay in myoblasts, 96-well). The conditions noted are these: 96-well; for Burkin Assay in Myoblasts, value relative to DMSO: SU9516 analogs, N=3-6; for Burkin Assay in Myoblasts, signal relative to DMSO: α7+/LacZ myoblasts.
For assay [4], the system named is α7 integrin (LacZ reporter in α7+/LacZ myotubes). In words: Myotube α7 integrin FDG assay (Burkin assay in myotubes, 96-well). The conditions noted are these: for Burkin Assay in Myotubes, value relative to DMSO: SU9516 analogs, 96-well, N=3-6.

Take `CC(C)Oc1ccc(C(=O)/C=C2/C(=O)Nc3ccccc32)cc1` [MLS001214276-01]: the “CMV-LACZ in Myoblasts, value relative to DMSO” value in assay [1] (0.5 uM) was determined as 0.9516; in assay [1] (1 uM) it was 0.8731; in assay [1] (5 uM) it was 1.3014; in assay [1] (10 uM), 1.2231; in assay [1] (20 uM), 1.2922; in assay [1] (40 uM), 0.1781. The “CMV-LACZ in Myotubes, value relative to DMSO” value in assay [2] (0.5 uM) came to 0.7733; in assay [2] (1 uM), 0.9141; in assay [2] (5 uM), 2.0151; in assay [2] (10 uM) it was 11.1000; in assay [2] (20 uM) it was 0.5259; in assay [2] (40 uM), 0.4976. Moreover, the “Burkin Assay in Myoblasts, value relative to DMSO” value turned out to be 1.328 in assay [3] (0.5 uM); 1.222 in assay [3] (1 uM); 0.6234 in assay [3] (5 uM); 0.3235 in assay [3] (10 uM); 0.2022 in assay [3] (20 uM); 0.02694 in assay [3] (40 uM). For the same compound, the “Burkin Assay in Myotubes, value relative to DMSO” value is given as 1.162 in assay [4] (0.5 uM); 1.197 in assay [4] (1 uM); 0.9019 in assay [4] (5 uM); 0.6945 in assay [4] (10 uM); 0.2362 in assay [4] (20 uM); 0.07736 in assay [4] (40 uM).
`O=c1[nH]c(CN2CCCCC2)nc2c1C1(CCCCC1)Cc1ccccc1-2` [MLS000028160-01]: the “CMV-LACZ in Myoblasts (β-galactosidase activity relative to DMSO)” value in assay [1] (0.5 uM) is reported as 1.0663; in assay [1] (1 uM), 0.9029; in assay [1] (5 uM) it was 0.9378; in assay [1] (10 uM), 1.2759; in assay [1] (20 uM), 0.8967; in assay [1] (40 uM) it was 0.8600. Further, the “CMV-LACZ in Myotubes, signal relative to DMSO” value in assay [2] (0.5 uM) came to 1.0524; in assay [2] (1 uM), 1.0362; in assay [2] (5 uM), 1.0348; in assay [2] (10 uM) it was 0.9249; in assay [2] (20 uM) it was 1.0471; in assay [2] (40 uM), 1.1976. The “Burkin Assay in Myoblasts, signal relative to DMSO” value in assay [3] (0.5 uM) turned out to be 1.037; in assay [3] (1 uM), 0.9873; in assay [3] (5 uM), 0.9805; in assay [3] (10 uM) it was 0.8521; in assay [3] (20 uM), 1.107; in assay [3] (40 uM) it was 0.8535. For the same compound, the “Burkin Assay in Myotubes, α7 integrin LacZ reporter signal relative to DMSO” value was determined as 1.085 in assay [4] (0.5 uM); 1.102 in assay [4] (1 uM); 0.9162 in assay [4] (5 uM); 0.9598 in assay [4] (10 uM); 0.9049 in assay [4] (20 uM); 0.8112 in assay [4] (40 uM).
